Experimental data as given in paper PMC10056443, “Derivatives of Amaryllidaceae Alkaloid Ambelline as Selective Inhibitors of Hepatic Stage of Plasmodium berghei Infection In Vitro” (Pharmaceutics, 2023).
Like-named read-outs stand apart in the source and are kept apart here.

Experiments:
[1] = Cytotoxicity assessment in vitro (MTT assay); type: cell-based; conditions: human
Method: (§1) HepG2 cells of human hepatocellular carcinoma (ATCC HB-8065; passage 20–25), purchased from Health Protection Agency Culture Collections (ECACC, Salisbury, UK), were cultured in Minimum Essential Medium Eagle supplemented with 10% v/v fetal bovine serum and 1% v/v L-glutamine solution (Sigma-Aldrich, St. Louis, MO, USA) at 37 °C in a humidified atmosphere containing 5% CO2. For passaging, the cells were treated with trypsin/EDTA (Sigma-Aldrich, St. Louis, MO, USA) at 37 °C and then harvested. For the cytotoxicity evaluation, the cells treated with the test substances were used, while untreated HepG2 cells served as a control group. The cells were seeded in a 96-well plate at a density of 1 × 10^4 cells per well and incubated for 24 h. All tested compounds were dissolved in DMSO to prepare 10 mM stock solutions and diluted to the desired concentration just before the cell treatment. Cytotoxicity of all studied derivatives was screened at 10 μM concentration, and all samples were measured in triplicates. Positive and negative controls were also included. Plates were incubated for 24 h in a humidified atmosphere containing 5% CO2 at 37 °C. After the incubation, a solution of thiazolyl blue tetrazolium bromide (Sigma-Aldrich, St. Louis, MO, USA) in RPMI 1640 medium without phenol red (BioTech, Prague, Czech Republic) was added and incubated for 3 h in a humidified atmosphere containing 5% CO2 at 37 °C. Afterwards, formazan crystals were dissolved in DMSO, and the absorbance of samples was recorded at 570 nm (Synergy Neo2 Multi-Mode Reader NEO2SMALPHAB; BioTek, Winooski, VT, USA).

HepG2 cells = test: Cytotoxicity assessment in vitro (MTT assay); type: cell-based
Method: as §1

[2] = tested on: hepatic stage of P. berghei; test: In vitro activity against P. berghei hepatic stages (luciferase-expressing sporozoites in Huh-7 cells, bioluminescence); type: cell-based, Plasmodium berghei; design: INFECTION (IC50 determination): unit not given here; conditions: for activity at 1 µM / activity at 10 µM / IC50: Plasmodium berghei; for activity at 1 µM / activity at 10 µM: Huh-7, 48 h, read-out: INFECTION Ø screening; for activity at 1 µM / activity at 10 µM / INFECTION (IC50 determination): DMSO = 100
Method: Activity against the hepatic stage of P. berghei infection was assessed using the human hepatoma cell line Huh-7 (deposited at the Japanese Collection of Research Bioresources under JCRB0403). The protocol was previously comprehensively described by Prudêncio et al. and by Ploemen et al.. […] Cells were seeded in 96-well plates at a density of 1 × 10^4 cells per well in 100 µL of culture medium and incubated at 37 °C with 5% CO2 for approximately 18 h. […] The culture medium was substituted by infection medium with diluted compounds 1 hour in advance of infection. Luciferase-expressing P. berghei sporozoites (PbA-LuciGFPcon spz) were freshly obtained through the dissection of salivary glands from infected female Anopheles stephensi mosquitoes. Sporozoites were added to the cells at 1:1 ratio, i.e., 1 × 10^4 sporozoites were added per well, and then subjected to centrifugation at 1800× g for 5 min. The plate was then incubated for 46 h at 37 °C with 5% CO2, at which time Huh-7 cell confluency was indirectly assessed by the alamarBlue assay (Invitrogen, Waltham, MA, USA), as reported in the manufacturer’s protocol. Parasite load was assessed 48 h post-infection by a bioluminescence assay, as reported by the manufacturer (Biotium, Fremont, CA, USA). GraphPad Prism 8 (GraphPad Software, Inc., La Jolla, CA, USA) was used to obtain IC50 values using nonlinear regression analysis to fit the dose-response curves normalized results.

Huh-7 cell line = test: Huh-7 cell confluency by alamarBlue assay during hepatic-stage test; type: cell-based
Method: Activity against the hepatic stage of P. berghei infection was assessed using the human hepatoma cell line Huh-7 (deposited at the Japanese Collection of Research Bioresources under JCRB0403). The protocol was previously comprehensively described by Prudêncio et al. and by Ploemen et al.. Briefly, cell culture medium consisted of 1640 RPMI medium supplemented with 10% v/v fetal calf serum, 1% v/v L-glutamine, 1% v/v nonessential amino acids, 1% v/v penicillin/streptomycin, and 10 mM HEPES, pH 7. Cells were seeded in 96-well plates at a density of 1 × 10^4 cells per well in 100 µL of culture medium and incubated at 37 °C with 5% CO2 for approximately 18 h. […] The culture medium was substituted by infection medium with diluted compounds 1 hour in advance of infection. Luciferase-expressing P. berghei sporozoites (PbA-LuciGFPcon spz) were freshly obtained through the dissection of salivary glands from infected female Anopheles stephensi mosquitoes. Sporozoites were added to the cells at 1:1 ratio, i.e., 1 × 10^4 sporozoites were added per well, and then subjected to centrifugation at 1800× g for 5 min. The plate was then incubated for 46 h at 37 °C with 5% CO2, at which time Huh-7 cell confluency was indirectly assessed by the alamarBlue assay (Invitrogen, Waltham, MA, USA), as reported in the manufacturer’s protocol. Parasite load was assessed 48 h post-infection by a bioluminescence assay, as reported by the manufacturer (Biotium, Fremont, CA, USA). GraphPad Prism 8 (GraphPad Software, Inc., La Jolla, CA, USA) was used to obtain IC50 values using nonlinear regression analysis to fit the dose-response curves normalized results.

[3] = Huh-7, replicate 1, unit (Table 1: µM), read-out: Antiplasmodial activity - IC50 determination, 1. measurement
[4] = Huh-7, replicate 2, unit (Table 1: µM), read-out: Antiplasmodial activity - IC50 determination, 2. measurement
[5] = Huh-7, replicate 3, unit (Table 1: µM), read-out: Antiplasmodial activity - IC50 determination, 3. measurement
[6] = hepatic stage, Huh-7 cells, parasite load 48 h post-infection, read-out: IC50 P. berghei
[7] = c = 10 µM, 24 h, MTT, read-out: HepG2 % of cell viability compared to non-treated control (100%)
[8] = at 1 μM, DMSO = 100, in % (unit assumed)
[9] = at 10 μM, DMSO = 100, in % (unit assumed)

Structure (SMILES) | viability at 24 h, 10 µM [1] [%] | 1. screening of cytotoxic potential, HepG2 cell line (HepG2 cells; human, 24 h, 10 µM) | 2. screening of cytotoxic potential, HepG2 cell line (HepG2 cells; human, 24 h, 10 µM) | 3. screening of cytotoxic potential, HepG2 cell line (HepG2 cells; human, 24 h, 10 µM) | Ø screening, HepG2 (sheet Graphs) (HepG2 cells; human, 24 h, 10 µM) | activity at 1 µM [2] [%] | activity at 10 µM [2] [%] | IC50 [2, 3] [µM] | IC50 [2, 4] [µM] | IC50 [2, 5] [µM] | IC50 [2, 6] [µM] | CELL CONFLUENCY Ø screening (Huh-7 cell line; human, 46 h, 1 µM, pH 7) | CELL CONFLUENCY Ø screening (Huh-7 cell line; human, 46 h, 10 µM, pH 7) | viability at 24 h, 10 µM [1, 7] [%] | Ø screening, HepG2 (sheet Graphs) (HepG2 cells; c = 10 μM, DMSO = 100, in %) | 1. screening of cytotoxic potential, HepG2 cell line (HepG2 cells; c = 10 μM, replicate 1, in %) | 2. screening of cytotoxic potential, HepG2 cell line (HepG2 cells; c = 10 μM, replicate 2, in %) | 3. screening of cytotoxic potential, HepG2 cell line (HepG2 cells; c = 10 μM, replicate 3, in %) | CELL CONFLUENCY Ø screening (Huh-7 cell line; [8]) | CELL CONFLUENCY Ø screening (Huh-7 cell line; [9]) | further results
COc1ccccc1C(=O)O[C@@H]1CN2Cc3c(cc4c(c3OC)OCO4)[C@@]13C=C[C@H](OC)C[C@@H]23 [28i, 11-O-(2-Methoxybenzoyl)ambelline] | 86 ± 2 | 85.49 | 83.85 | 87.77 | 85.7 | 60.6 | 1.65 | 1.53 | 2.98 | 2.7 | 2.4 ± 0.77 | 140.5 | 135.7 | – | – | – | – | – | – | – | –
COc1c2c(cc3c1OCO3)[C@]13C=C[C@H](OC)C[C@H]1N(C2)C[C@H]3OC(=O)c1cccc(C)c1 [28f, 11-O-(3-Methylbenzoyl)ambelline] | 75 ± 1 | 76.64 | 74.3 | 74.27 | 75.07 | 15.1 | 0.306 | 0.185 | 0.41 | 0.357 | 0.317 ± 0.118 | 118 | 93.35 | – | – | – | – | – | – | – | –
COc1ccc(C(=O)O[C@@H]2CN3Cc4c(cc5c(c4OC)OCO5)[C@@]24C=C[C@H](OC)C[C@@H]34)cc1 [28k, 11-O-(4-Methoxybenzoyl)ambelline] | – | – | – | – | – | 19.9 | 0.872 | 0.446 | 0.456 | – | 0.451 ± 0.007 | – | – | 88 ± 2 | 87.88 | 88.02 | 89.64 | 85.98 | 107.6 | 76.48 | –
COc1cc(C(=O)O[C@@H]2CN3Cc4c(cc5c(c4OC)OCO5)[C@@]24C=C[C@H](OC)C[C@@H]34)cc(OC)c1OC [28n, 11-O-(3,4,5-Trimethoxybenzoyl)ambelline] | 52 ± 2 | 52.2 | 49.89 | 54.09 | 52.06 | 2.38 | 0.82 | 0.047 | 0.047 | – | 0.047 | 69.5 | 68.02 | – | – | – | – | – | – | – | IC50 ([2]; Huh-7, abstract, read-out: IC50 against hepatic stage of Plasmodium infection): 0.047 µM; IC50 ([2]; Huh-7, mean, unit (Table 1: µM), read-out: Antiplasmodial activity - Ø IC50): 0.047 µM; INFECTION (IC50 determination) ([2]; at 0.001 µM): 132.557; INFECTION (IC50 determination) ([2]; at 0.01 µM): 115.469; INFECTION (IC50 determination) ([2]; at 0.04 µM): 56.6784; INFECTION (IC50 determination) ([2]; at 0.07 µM): 26.9184; INFECTION (IC50 determination) ([2]; at 0.1 µM): 17.5104; INFECTION (IC50 determination) ([2]; at 0.5 µM): 2.9184; Huh-7 cell viability (Huh-7 cell line): cell viability was not affected at antiplasmodial-active concentrations; CELL CONFLUENCY (IC50 determination) (Huh-7 cell line; human, 46 h, 0.001 µM, pH 7): 120.661; CELL CONFLUENCY (IC50 determination) (Huh-7 cell line; human, 46 h, 0.01 µM, pH 7): 126.131; CELL CONFLUENCY (IC50 determination) (Huh-7 cell line; human, 46 h, 0.04 µM, pH 7): 117.957; CELL CONFLUENCY (IC50 determination) (Huh-7 cell line; human, 46 h, 0.07 µM, pH 7): 115.634; CELL CONFLUENCY (IC50 determination) (Huh-7 cell line; human, 46 h, 0.1 µM, pH 7): 118.616; CELL CONFLUENCY (IC50 determination) (Huh-7 cell line; human, 46 h, 0.5 µM, pH 7): 106.144
COc1cccc(C(=O)O[C@@H]2CN3Cc4c(cc5c(c4OC)OCO5)[C@@]24C=C[C@H](OC)C[C@@H]34)c1 [28j, 11-O-(3-Methoxybenzoyl)ambelline] | – | – | – | – | – | 10.8 | 0.612 | 0.19 | 0.362 | 0.232 | 0.261 ± 0.09 | – | – | 81 ± 10 | 80.77 | 69.18 | 85.98 | 87.15 | 109.9 | 81.02 | –
COc1ccc(C(=O)O[C@@H]2CN3Cc4c(cc5c(c4OC)OCO5)[C@@]24C=C[C@H](OC)C[C@@H]34)cc1OC [28l, 11-O-(3,4-Dimethoxybenzoyl)ambelline] | 99 ± 9 | 106.14 | 89.55 | 102.39 | 99.36 | 1.65 | 0.301 | 0.16 | 0.135 | – | 0.147 ± 0.018 | 85.82 | 70.05 | – | – | – | – | – | – | – | –
